Data as given in patent US4734409A, “Cephalosporin derivative, process for producing the same and pharmaceutical composition containing the same” (Kureha Kagaku Kogyo Kabushiki Kaisha, priority 1984, dated 1988).

Tests used:
[1] = tested on: Escherichia coli IFO 12734; assay: Antibacterial activity, agar plate dilution method: E. coli IFO 12734; assay type: cell-based; conditions: Mueller-Hinton agar, 10^6 cells/ml, 37° C., 18 to 24 hours
Protocol: (§1) Antibacterial activity of the present compound was examined by agar plate dilution method while following the standard method of Japan Society of Chemotherapy and using the following strain: 1. Escherichia coli IFO 12734 Namely, after inoculating each bacteria on Mueller-Hinton culture medium, the inoculum was incubated for 18 to 48 hours at 37° C. and after adjusting the number of cells of each bacteria so as to contain 10^6 in one ml, the thus prepared specimen was used as the test bacterial liquid. Each of the present substances (the substance in Example 1 and the substance in Example 2) was dispersed in aqueous physiological saline solution at a predetermined concentration and the thus prepared dispersion was added to 9 times by volume of the culture medium for examining sensitivity (Mueller-Hinton culture medium) to prepare agar plates. On each agar plate, each of the test bacterial liquid was smeared at a width of about 2 cm, and the thus smeared agar plate was incubated for 18 to 24 hours at 37° C.

[2] = tested on: Staphylococcus aureus IAM 1011; assay: Antibacterial activity, agar plate dilution method: S. aureus IAM 1011; assay type: cell-based; conditions: Mueller-Hinton agar, 10^6 cells/ml, 37° C., 18 to 24 hours
Protocol: as §1, with “2. Staphylococcus aureus IAM 1011” for “1. Escherichia coli IFO 12734”

[3] = tested on: Proteus vulgaris IAM 1025; assay: Antibacterial activity, agar plate dilution method: P. vulgaris IAM 1025; assay type: cell-based; conditions: Mueller-Hinton agar, 10^6 cells/ml, 37° C., 18 to 24 hours
Protocol: as §1, with “4. Proteus vulgaris IAM 1025” for “1. Escherichia coli IFO 12734”

[4] = tested on: bacteria (strains of Table 3); assay: Antibacterial activity, agar plate dilution method, overall; assay type: cell-based; conditions: as seen from Table 3
Protocol: Antibacterial activity of the present compound was examined by agar plate dilution method while following the standard method of Japan Society of Chemotherapy and using the following strain:
2. Staphylococcus aureus IAM 1011
3. Escherichia coli W 3636
4. Proteus vulgaris IAM 1025
5. Pseudomonas aeruginosa IAM 1514
6. Serratia marcescens IAM 1223
Namely, after inoculating each bacteria on Mueller-Hinton culture medium, the inoculum was incubated for 18 to 48 hours at 37° C. and after adjusting the number of cells of each bacteria so as to contain 10^6 in one ml, the thus prepared specimen was used as the test bacterial liquid.
Each of the present substances (the substance in Example 1 and the substance in Example 2) was dispersed in aqueous physiological saline solution at a predetermined concentration and the thus prepared dispersion was added to 9 times by volume of the culture medium for examining sensitivity (Mueller-Hinton culture medium) to prepare agar plates.
On each agar plate, each of the test bacterial liquid was smeared at a width of about 2 cm, and the thus smeared agar plate was incubated for 18 to 24 hours at 37° C.

[5] = tested on: Staphylococcus aureus IAM 1011; assay: in vitro; assay type: in vitro ADME
Protocol: As a model experiment for verifying the stability of the present compound in Example 1 in the living body, the following procedures were adopted. The same test solution of the present compound as in Example 6 was prepared by mixing 0.1 ml of the dispersion of the present compound and 0.9 ml of S-9 mix, and shaking the mixture for 20 min at 37° C. As a control, a mixture of 0.1 ml of the dispersion of the present compound and 0.9 ml of the 0.2M phosphoric acid buffer was shaken for 20 min at 37° C. As the test bacteria, Staphylococcus aureus IAM 1011 was inoculated in Mueller-Hinton culture medium, and after incubating the inoculum for 18 hours at 37° C., the number of bacteria in the medium was adjusted to 10^8 /ml and the thus adjusted, cultured medium was mixed with 50 times by volume of Mueller-Hinton culture medium. After preparing an agar plate from the mixture, a penicillin cup of 8 mm in diameter was placed on the agar plate, and 0.1 ml of the test solution prepared above was put into the cup. After leaving the thus prepared agar plate for 2 hours at 4° C., the agar plate was subjected to culture for 18 hours at 37° C. to measure the diameter of a proliferation-inhibiting circle appearing on the agar plate. From a calibration curve preliminarily prepared between the concentration of the present compound and the diameter of the proliferation-inhibiting circle, the concentration of the present compound in the test solution and the control was obtained. By using the thus obtained concentration, the rate of retaining the antibacterial activity (Rate (%)) was calculated from the following formula and is shown in Table 5. [formula] As a comparative experiment, the same precedures were carried out except for using Cefotax (a commercialized cephalosporin derivative sold by CHUGAI Pharmaceuticla Co., Ltd., which is represented by the following formula), [drawing 21] instead of the present compound produced in Example 1.

[6] = tested on: Escherichia coli IFO 12734; assay: Therapeutic effect on the experimental infectious disease on mice; assay type: in vivo, Escherichia coli (infected ddY-SPF mice)
Text: Therapeutic effect of the present compounds on the infection was examined as follows.

Structure (SMILES): CO/N=C(\C(=O)N[C@@H]1C(=O)N2C(C(=O)OCOC(=O)C(C)(C)C)=C(CSc3nnc(C)s3)CS[C@H]12)c1csc(NC(=O)C(Cl)Cl)n1 [Example 2]
- minimal inhibitory concentration (MIC), E. coli IFO 12734 [1]: 50
- minimal inhibitory concentration (MIC), S. aureus IAM 1011 [2]: ≥ 100
- minimal inhibitory concentration (MIC), Pro. vulgaris IAM 1025 [3]: 50
- antibacterial activity (in words) [4]: shows a low antibacterial activity
- Rate of retaining the antibacterial activity (in words) [5]: the same result as that obtained in using the present compound produced in Example 1
- survival 7 days after inoculation ([6]; 25 mg/kg orally, 1 time, 1 hour after intraperitoneal inoculation of 1.4×10^3 cells, all untreated mice died on the second day): all the mice administered with the present compound survived

Structure (SMILES): CO/N=C(\C(=O)N[C@@H]1C(=O)N2C(C(=O)O)=C(CSc3nnc(C)s3)CS[C@H]12)c1csc(NC(=O)C(Cl)Cl)n1 [Example 1, 7β-[2-(2-dichloroacetamido-4-thiazolyl)-(Z)-2-methoxyiminoacetamido]-3-[(2-methyl-1,3,4-thiadiazol-5-yl)thiomethyl]-3-cephem-4-carboxylic acid]
- minimal inhibitory concentration (MIC), E. coli IFO 12734 [1]: 0.1
- minimal inhibitory concentration (MIC), S. aureus IAM 1011 [2]: 0.78
- minimal inhibitory concentration (MIC), Pro. vulgaris IAM 1025 [3]: 0.05
- antibacterial activity (in words) [4]: shows an antibacterial activity
- Rate of retaining the antibacterial activity (in words) [5]: superior to a conventional commerciallized cephalosporin derivative
- survival 7 days after inoculation ([6]; intravenous administration, dose not given): All the ddY-SPF mice administered with the present compound produced in Example 1 via intravenation survived
